Assay results: patent US20250369032A1 (priority 2023, published 2025)

Target: alkaline phosphatase (Bos taurus, UniProt P19111)
Assay: Solvent screen, visual colour change in PNPP
Details: 200 μL of the solvent into 2 mL of PNPP; 1-hour
Description: The results were not quantified with the spectrophotometer but the color change was visually observed. […] Two different dosing concentrations were evaluated, 10 μL of test chemical added to 90 μL of alkaline phosphatase reaction reagent and 50 μL of test chemical added to 50 μL of alkaline phosphatase reaction reagent; all aliquoted in 96-well plates.

alkaline phosphatase, sequence (P19111 20-506): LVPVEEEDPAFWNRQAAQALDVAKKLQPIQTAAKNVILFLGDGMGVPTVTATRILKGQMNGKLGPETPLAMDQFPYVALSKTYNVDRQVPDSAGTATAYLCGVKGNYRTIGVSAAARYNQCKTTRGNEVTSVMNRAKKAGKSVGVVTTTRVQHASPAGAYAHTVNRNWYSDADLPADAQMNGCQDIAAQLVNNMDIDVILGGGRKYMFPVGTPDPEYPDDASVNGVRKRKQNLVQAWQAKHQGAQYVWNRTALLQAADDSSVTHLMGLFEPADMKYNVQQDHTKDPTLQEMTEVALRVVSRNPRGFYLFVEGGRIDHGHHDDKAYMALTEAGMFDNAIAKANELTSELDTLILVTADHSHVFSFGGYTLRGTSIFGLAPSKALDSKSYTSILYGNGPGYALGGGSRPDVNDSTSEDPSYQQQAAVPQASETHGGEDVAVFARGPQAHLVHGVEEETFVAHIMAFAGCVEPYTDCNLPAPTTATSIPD

Compound	color change visually observed
CCO [ethanol]	brightest yellow intensity
CC(C)=O [acetone]	brightest yellow intensity
CO [methanol]	lesser yellow intensity
C[S+](C)[O-] [dimethyl sulfoxide]	no response (clear)
